The source made the active and inactive calls. The calls are words filed in the database; no cut-off is given here.

This passage reports inhibition and Stability results from ChEMBL document CHEMBL1156141, “Synthesis and biological evaluation of novel thiocolchicine-podophyllotoxin conjugates” (Eur J Med Chem, 2010).

The test system of data set [1] is A549. The settings on record: Homo sapiens, at 0.5 µM.
Description: Inhibition of microtubule in human A549 cells assessed as network disappearane at 0.5 uM after 1 hr by immunofluorescence analysis
Data set [2] deals with A549. The settings on record: Homo sapiens, at 0.5 µM. This is another data set of the same source.
Description: Inhibition of microtubule in human A549 cells assessed as roundish cells at 0.5 uM after 24 hrs by immunofluorescence analysis
Data set [3] concerns A549. The experiment in a line: Inhibition of microtubule in human A549 cells assessed as roundish cells at 0.5 uM after 1 hr by immunofluorescence analysis. The class given is cell-based.
Data set [4] in a line: Chemical stability assessed as disulfide cleavage after 3 hrs by ESI-MS in presence of L-glutathione. The class given is physicochemical.
Data set [5] deals with A549. The experiment in a line: Inhibition of microtubule in human A549 cells assessed as microtubule organization at 0.5 uM after 1 hr by immunofluorescence analysis. Format: cell-based.

As for `COc1cc([C@@H]2c3cc4c(cc3[C@H](OC(=O)CCCSSCCCC(=O)N[C@H]3CCc5cc(OC)c(OC)c(OC)c5-c5ccc(SC)c(=O)cc53)[C@H]3COC(=O)[C@H]23)OCO4)cc(OC)c1OC`, the inhibition result in the data set with A549 [1] and in the data set on A549 [2] was “Active” in each case.
Take `COc1cc2c(c(OC)c1OC)-c1ccc(SC)c(=O)cc1[C@@H](NC(=O)C(N)CSSCC(N)C(=O)N[C@H]1CCc3cc(OC)c(OC)c(OC)c3-c3ccc(SC)c(=O)cc31)CC2` (stereo partly specified): in the data set with A549 [2], the inhibition (usually the percentage by which the read-out fell short of the control) was “Active”. Further, the inhibition in the data set on A549 [3] turned out to be 50%.
Consider `COc1cc([C@@H]2c3cc4c(cc3[C@H](O)[C@H]3COC(=O)[C@H]23)OCO4)cc(OC)c1OC`, for which the inhibition entry in the data set with A549 [1] and in the data set with A549 [2] was “Active” in each case.
Regarding `COc1cc2c(c(OC)c1OC)-c1ccc(SC)c(=O)cc1[C@@H](NC(=O)CSSCC(=O)N[C@H]1CCc3cc(OC)c(OC)c(OC)c3-c3ccc(SC)c(=O)cc31)CC2`, the inhibition result with A549 [1] and in the data set with A549 [2] was “Active” each time. For the same compound, the Stability result in data set [4] was “Unstable”.
As to `COc1cc([C@@H]2c3cc4c(cc3[C@H](OC(=O)CCCCC(=O)O[C@H]3c5cc6c(cc5[C@@H](c5cc(OC)c(OC)c(OC)c5)[C@H]5C(=O)OC[C@@H]53)OCO6)[C@H]3COC(=O)[C@H]23)OCO4)cc(OC)c1OC`, the inhibition result with A549 [5] is “inactive”. The inhibition result in the data set on A549 [2] was “Active”.
As to `COc1cc2c(c(OC)c1OC)-c1ccc(SC)c(=O)cc1[C@@H](NC(=O)CCSSCCC(=O)N[C@H]1CCc3cc(OC)c(OC)c(OC)c3-c3ccc(SC)c(=O)cc31)CC2`, the inhibition result with A549 [1] and with A549 [2] was “Active” in each case.
Turning to `COc1cc2c(c(OC)c1OC)-c1ccc(SC)c(=O)cc1[C@@H](NC(=O)C(N)CCCCC(N)C(=O)N[C@H]1CCc3cc(OC)c(OC)c(OC)c3-c3ccc(SC)c(=O)cc31)CC2` (stereo partly specified), the inhibition result with A549 [5] is “inactive”. In addition, the inhibition entry in the data set on A549 [2] was “Active”.
For the compound `COc1cc([C@@H]2c3cc4c(cc3[C@H](OC(=O)CSSCC(=O)O[C@H]3c5cc6c(cc5[C@@H](c5cc(OC)c(OC)c(OC)c5)[C@H]5C(=O)OC[C@@H]53)OCO6)[C@H]3COC(=O)[C@H]23)OCO4)cc(OC)c1OC`, in the data set with A549 [2], the inhibition entry was “Active”. The inhibition with A549 [3] came to 50%.
`COc1cc([C@@H]2c3cc4c(cc3[C@H](OC(=O)C(N)CSSCC(N)C(=O)O[C@H]3c5cc6c(cc5[C@@H](c5cc(OC)c(OC)c(OC)c5)[C@H]5C(=O)OC[C@@H]53)OCO6)[C@H]3COC(=O)[C@H]23)OCO4)cc(OC)c1OC` (stereo partly specified): the inhibition entry in the data set on A549 [1] and in the data set on A549 [2] was “Active” each time.
Take `COc1cc2c(c(OC)c1OC)-c1ccc(SC)c(=O)cc1[C@@H](NC(=O)CCCCC(=O)N[C@H]1CCc3cc(OC)c(OC)c(OC)c3-c3ccc(SC)c(=O)cc31)CC2`: the inhibition entry in the data set with A549 [2] is “Active”. Besides, in the data set on A549 [3], the inhibition stood at 50%.
